From EP1400530A1, “Suppression of immune response via inhibition of cathepsin S” (MASSACHUSETTS INSTITUTE OF TECHNOLOGY, priority 1996, dated 1997)

System: Peripheral blood mononuclear cells (PBMC's)
Assay type: cell-based, human
Conditions: 3-5 days; 20 µM

CCOC(=O)[C@H]1O[C@@H]1C(=O)N[C@@H](CC(C)C)C(=O)NCCC(C)C (relative stereo) [E64D]
attenuation of 3H-thymidine uptake response to tetanus toxoid: approximately 60%
